According to patent US20250163044A1, “COMPOUNDS” (PSYLO PTY LTD, priority 2021, published 2025):
Several values for one entry are separate records, joined by “and”; a condition that tells them apart may be missing. Identical values can stand only once. Like-named read-outs stand apart in the source and are kept apart here.

Key:
5-HT2A receptor = biological target: T1, 5-HT2A receptor (Homo sapiens, UniProt P28223); experiment: FLIPR Ca2+ flux functional assay, agonist activity at 5-HT2A; format: cell-based; details: HEK293 cells, Ca2+ flux; for EC50: read-out: 5-HT2A EC50
T1 construct: host or cells: HEK293
T1 sequence (P28223 whole entry): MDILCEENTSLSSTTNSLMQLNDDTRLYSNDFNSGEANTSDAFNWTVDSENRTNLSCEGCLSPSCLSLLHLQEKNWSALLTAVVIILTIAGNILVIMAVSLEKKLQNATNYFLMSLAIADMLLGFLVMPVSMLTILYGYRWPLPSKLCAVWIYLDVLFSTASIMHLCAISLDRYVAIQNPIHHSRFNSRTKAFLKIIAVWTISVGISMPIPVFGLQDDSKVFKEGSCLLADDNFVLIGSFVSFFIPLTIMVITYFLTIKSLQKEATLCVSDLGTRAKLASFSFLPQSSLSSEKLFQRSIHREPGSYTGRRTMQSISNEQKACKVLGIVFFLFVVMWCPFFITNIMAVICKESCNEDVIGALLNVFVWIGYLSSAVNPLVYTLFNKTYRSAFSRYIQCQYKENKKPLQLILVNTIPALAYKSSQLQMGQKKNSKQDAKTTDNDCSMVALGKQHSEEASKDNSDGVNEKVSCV
Protocol: (§1) Activity at 5-HT2A, 5-HT2B and 5-HT2C receptors was determined using a FLIPR Ca2+ flux assay at WuXi AppTec Co. Ltd. (Hong Kong) Discovery Biology Unit according to their standard protocols. Briefly, stably transfected cells expressing the receptor of interest (HEK293 for 5-HT2A and 5-HT2C; CHO-K1 for 5-HT2B) were grown and plated in a 384 well plate and incubated at 37° C. and 5% CO2 overnight. A 250 mM stock solution of probenecid in FLIPR calcium assay buffer (10 mL) was freshly prepared and combined with a fluorescent dye (Fluo-4 Direct) to give a final assay concentration of 2.5 mM. Reference compounds were 4-fold serially diluted and the screening compounds were 3-fold serially diluted in 100% DMSO for 10 points using Agilent Bravo, and 750 nL was added to a 384 well compound plate using Echo along with 30 μL assay buffer. The fluorescent dye was then added to the assay plate along with assay buffer to a final volume of 40 μL. The cell plate was incubated for 50 min at 37° C. and 5% CO2 and placed into the FLIPR Tetra along with the compound plate. 10 μL of references and compounds were then transferred from the compound plate into the cell plate and the fluorescent signal was read.

5-HT2B receptor = biological target: T2, 5-HT2B receptor (Homo sapiens, UniProt P41595); experiment: FLIPR Ca2+ flux functional assay, agonist activity at 5-HT2B; format: cell-based; details: CHO-K1 cells, Ca2+ flux; for EC50: read-out: 5-HT2B EC50
T2 construct: host or cells: CHO-K1
T2 sequence (P41595 whole entry): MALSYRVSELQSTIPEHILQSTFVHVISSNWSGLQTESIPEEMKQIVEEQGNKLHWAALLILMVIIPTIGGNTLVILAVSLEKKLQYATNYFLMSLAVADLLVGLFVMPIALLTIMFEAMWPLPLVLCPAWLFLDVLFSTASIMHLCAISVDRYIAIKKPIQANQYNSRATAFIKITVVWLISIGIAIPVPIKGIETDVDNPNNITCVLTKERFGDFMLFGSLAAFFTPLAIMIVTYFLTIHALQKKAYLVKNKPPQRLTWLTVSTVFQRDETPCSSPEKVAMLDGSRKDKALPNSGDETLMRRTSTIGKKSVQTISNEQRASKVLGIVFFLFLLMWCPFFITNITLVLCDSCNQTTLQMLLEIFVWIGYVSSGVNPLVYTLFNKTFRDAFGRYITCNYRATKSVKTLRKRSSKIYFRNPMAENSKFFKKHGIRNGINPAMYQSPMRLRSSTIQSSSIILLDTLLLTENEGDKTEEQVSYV
Protocol: as §1

5-HT2C receptor = biological target: T3, 5-HT2C receptor (Homo sapiens, UniProt P28335); experiment: FLIPR Ca2+ flux functional assay, agonist activity at 5-HT2C; format: cell-based; details: HEK293 cells, Ca2+ flux; for EC50: read-out: 5-HT2C EC50
T3 construct: host or cells: HEK293
T3 sequence (P28335 33-458): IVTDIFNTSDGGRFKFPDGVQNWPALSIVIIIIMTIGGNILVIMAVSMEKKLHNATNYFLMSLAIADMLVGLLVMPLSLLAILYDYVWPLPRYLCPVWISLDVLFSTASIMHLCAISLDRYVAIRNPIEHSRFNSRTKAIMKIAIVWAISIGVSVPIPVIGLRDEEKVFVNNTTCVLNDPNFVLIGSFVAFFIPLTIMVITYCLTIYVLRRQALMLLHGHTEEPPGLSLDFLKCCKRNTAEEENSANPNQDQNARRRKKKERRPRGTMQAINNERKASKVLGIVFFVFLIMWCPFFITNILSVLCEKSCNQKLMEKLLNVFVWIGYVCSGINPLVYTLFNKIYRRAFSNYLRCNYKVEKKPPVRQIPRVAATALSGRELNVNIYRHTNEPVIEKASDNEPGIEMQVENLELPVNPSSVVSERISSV
Protocol: as §1

[1] = In vivo pharmacokinetics: plasma and brain exposure after IP administration; parameters: species or system male C57BL/6 mice; details: for Kp at 0.083 h / Kp at 0.5 h: brain/plasma
Protocol: The systemic exposure of selected examples was studied in non-fasted male C57BL/6 mice weighing between 18.9-25.5 g. Mice had access to food and water ad libitum throughout the pre- and post-dose sampling period.
On the day of dosing, the formulation of each compound was prepared by dissolving solid compound in phosphate buffer saline (50 mM) using vortexing, creating colourless solutions (pH 6.4-6.5) for each compound.
Compounds were dosed to mice by IP injection (10 mL/kg dose volume via a 27G needle; n=9 mice per compound) and blood samples were collected at 5 and 30 min; 1, 2 and 4 h post-dose (n=3 mice per time point for each compound). A maximum of three blood samples were obtained from each mouse, with plasma samples being taken via submandibular bleed (approximately 120 μL). Once collected, blood samples were centrifuged immediately, supernatant plasma was removed, and stored at −80° C. until analysis by LCMS. In addition, at the 5 and 30 min and 4 h post-dose time points, the whole brain was rapidly removed from the carcass soon after the blood collection. The whole brains were blotted to remove excess blood, placed into pre-weighed polypropylene vials, and weighed. The brains were snap frozen in dry ice and subsequently stored frozen (−80° C.) until analysis.
Test compound standard solutions were diluted from a concentrated stock solution (32 mM in H2O) using 50% can in H2O (v/v) and a calibration curve was prepared in a matched matrix to the test samples.
Plasma: The plasma calibration curve was prepared by spiking aliquots of blank mouse plasma (25 μL) with test compound standard solutions (5 μL) and internal standard solution (5 μL of diazepam, 5 μg/mL in 50% acetonitrile in water). Test plasma samples (25 μL) were thawed, mixed, and then spiked with internal standard solution (5 μL). Plasma protein precipitation was performed by addition of acetonitrile (3-fold volume ratio) and thorough vortex mixing. Samples were centrifuged (RCF=9391×g) for 3 minutes and the supernatant (90 μL) was collected for analysis.
Tissue: Pre-weighed tissue samples (brain) were homogenised using a glass rod in buffer containing an EDTA/potassium fluoride solution (0.1 M/4 mg/mL) as a stabilisation cocktail to minimise the potential for ex vivo degradation (3 mL cocktail/g tissue). The tissue homogenate was briefly centrifuged (RCF=79×g) for 10 seconds to separate the foam layer before transferring an aliquot of the tissue homogenate (200 μL) to a fresh Eppendorf tube for sample extraction. Calibration standards were prepared by spiking blank brain homogenate (200 μL) with the solution standards (10 μL) and the internal standard (10 μL). Study samples were similarly prepared, except that acetonitrile (10 μL) was added instead of solution standards to maintain the same volume. Protein precipitation was carried out by the addition of a 3-fold volume of acetonitrile, followed by vortex mixing and centrifugation (RCF=9391×g) for 3 min to recover the supernatant for analysis.
Replicate analysis: Triplicate analytical replicate (ARs) samples were prepared similarly to the standards for each sample type at three concentrations (50, 500 and 2,000 ng/mL) and repeat injections of these ARs were included throughout the analytical run to assess assay performance. The extraction of the test compound from the standards and ARs were conducted as described above.

[2] = 0.083 h, IP 10 mg/kg, individual mouse, 10 mg/kg
[3] = 0.5 h, IP 10 mg/kg, individual mouse, 10 mg/kg
[4] = 4 h, IP 10 mg/kg, individual mouse
[5] = mouse, plasma, male C57BL/6 mice, IP 10 mg/kg

## COc1nccc2[nH]cc(CCN(C)C)c12 [Example P-5, 2-(4-methoxy-1H-pyrrolo[3,2-c]pyridin-3-yl)-N,N-dimethylethan-1-amine]
5-HT2A receptor
  Emax: 56.2%
  EC50: 24.4 nM
5-HT2B receptor
  Emax: -0.87%
  EC50: > 10000 nM
5-HT2C receptor
  Emax: 79.1%
  EC50: 38.4 nM
[1]; [2]
  B:P Ratio, Individual: 0.19 and 0.16
  Plasma Concentration, Individual: 5880 nM and 1970 nM and 8280 nM
[1]; 0.083 h, IP 10 mg/kg, individual mouse, 10 mg/kg, read-out: Brain Parenchyma Concentration, Individual
  concentration at 0.5 h: 230 nM and 365 nM and 1360 nM
[1]; [3]
  B:P Ratio, Individual: 2.5 and 2.4
  Plasma Concentration, Individual: 985 nM and 776 nM
[1]; 0.5 h, IP 10 mg/kg, individual mouse, 10 mg/kg, read-out: Brain Parenchyma Concentration, Individual
  concentration at 0.5 h: 2420 nM and 1860 nM
[1]; [4]
  Brain Parenchyma Concentration, Individual: <LLQ
  Plasma Concentration, Individual: <LLQ
[1]; male, C57BL/6, mouse, brain, ip, 10 mg/kg, 0.083 h, n = 3, read-out: Brain Parenchyma Concentration, Mean ± SD
  concentration at 0.083 h: 984 ± 540 nM
[1]; male, C57BL/6, mouse, brain, ip, 10 mg/kg, 0.5 h, individual mouse, read-out: Brain Parenchyma Concentration, Individual
  concentration at 0.5 h: 1610 nM
[1]; male, C57BL/6, mouse, brain, ip, 10 mg/kg, 0.5 h, n = 3, read-out: Brain Parenchyma Concentration, Mean ± SD
  concentration at 0.5 h: 1970 ± 414 nM
[1]; male, C57BL/6, mouse, ip, 10 mg/kg, 0.083 h, individual mouse, read-out: B:P Ratio, Individual
  Kp at 0.083 h: 0.21
[1]; male, C57BL/6, mouse, ip, 10 mg/kg, 0.083 h, n = 3, read-out: B:P Ratio, Mean ± SD
  Kp at 0.083 h: 0.19 ± 0.022
[1]; male, C57BL/6, mouse, ip, 10 mg/kg, 0.5 h, individual mouse, read-out: B:P Ratio, Individual
  Kp at 0.5 h: 2
[1]; male, C57BL/6, mouse, ip, 10 mg/kg, 0.5 h, n = 3, read-out: B:P Ratio, Mean ± SD
  Kp at 0.5 h: 2.3 ± 0.26
[1]; male, C57BL/6, mouse, plasma, ip, 10 mg/kg, 0.083 h, n = 3, read-out: Plasma Concentration, Mean ± SD
  concentration at 0.083 h: 5380 ± 3180 nM
[1]; male, C57BL/6, mouse, plasma, ip, 10 mg/kg, 0.5 h, individual mouse, read-out: Plasma Concentration, Individual
  concentration at 0.5 h: 815 nM
[1]; male, C57BL/6, mouse, plasma, ip, 10 mg/kg, 0.5 h, n = 3, read-out: Plasma Concentration, Mean ± SD
  concentration at 0.5 h: 859 ± 111 nM
[1]; [5]
  Cmax: 5380 nM
  Tmax: 5 min
[1]; mouse, plasma, male C57BL/6 mice, IP 10 mg/kg, read-out: Plasma AUC0-last
  AUC(0-t): 1.63 µM·h

## CCN(CC)CCc1c[nH]c2ccc(OC)nc12 [Example P-10, 2-(5-Methoxy-1H-pyrrolo[3,2-b]pyridin-3-yl)-N,N-diethylethan-1-amine]
5-HT2A receptor
  Emax: 82.8%
  EC50: 6.11 nM
5-HT2B receptor
  Emax: 47.1%
  EC50: 284 nM
5-HT2C receptor
  Emax: 99.1%
  EC50: 68.6 nM

## CCN(CC)CCc1n[nH]c2cccc(OC)c12 [Example P-42, 2-(4-methoxy-1H-indazol-3-yl)-N,N-diethylethan-1-amine]
5-HT2A receptor
  EC50: 2980 nM
5-HT2B receptor
  EC50: > 10000 nM
5-HT2C receptor
  EC50: 3490 nM

## COc1cnc2[nH]cc(CCN(C)C(C)C)c2c1 [Example P-21, N-(2-(5-methoxy-1H-pyrrolo[2,3-b]pyridin-3-yl)ethyl)-N-methylpropan-2-amine]
5-HT2A receptor
  Emax: 79.8%
  EC50: 109 nM
5-HT2B receptor
  Emax: 4.56%
  EC50: > 10000 nM
5-HT2C receptor
  Emax: -0.15%
  EC50: > 10000 nM

## COc1nccc2[nH]cc(CCN(C(C)C)C(C)C)c12 [Example P-36, N,N-diisopropyl-2-(4-methoxy-1H-pyrrolo[3,2-c]pyridin-3-yl)ethan-1-amine]
5-HT2A receptor
  Emax: 114%
  EC50: 77.1 nM
5-HT2B receptor
  Emax: 48.9%
  EC50: 96.4 nM
5-HT2C receptor
  Emax: 38.4%
  EC50: > 10000 nM

## CCN(CC)CCc1n[nH]c2ccc(OC)cc12 [Example P-48, N,N-diethyl-2-(5-methoxy-1H-indazol-3-yl)ethan-1-amine]
5-HT2A receptor
  EC50: 6990 nM
5-HT2B receptor
  EC50: > 10000 nM
5-HT2C receptor
  EC50: > 10000 nM

## CCCN(CCC)CCc1n[nH]c2cccc(OC)c12 [Example P-44, 2-(4-methoxy-1H-indazol-3-yl)-N,N-dipropylethan-1-amine]
5-HT2A receptor
  EC50: 259 nM
5-HT2B receptor
  EC50: 490 nM
5-HT2C receptor
  EC50: 1700 nM

## COc1ccnc2[nH]cc(CCN(C)C(C)C)c12 [Example P-29, N-(2-(4-methoxy-1H-pyrrolo[2,3-b]pyridin-3-yl)ethyl)-N-methylpropan-2-amine]
5-HT2A receptor
  Emax: 71.6%
  EC50: 555 nM
5-HT2B receptor
  Emax: 0.59%
  EC50: > 10000 nM
5-HT2C receptor
  Emax: 0.48%
  EC50: > 10000 nM

## Cc1cnc2[nH]cc(CCN(C)C)c2c1 [Example P-22, N,N-dimethyl-2-(5-methyl-1H-pyrrolo[2,3-b]pyridin-3-yl)ethan-1-amine]
5-HT2A receptor
  Emax: 55.5%
  EC50: 691 nM
5-HT2B receptor
  Emax: 1.91%
  EC50: > 10000 nM
5-HT2C receptor
  Emax: 0.27%
  EC50: > 10000 nM

## COc1ccc2onc(CCN(C)C)c2c1 [Example P-9, 2-(5-methoxybenzo[d]isoxazol-3-yl)-N,N-dimethylethan-1-amine]
5-HT2A receptor
  Emax: 37.3%
  EC50: 1020 nM
5-HT2B receptor
  Emax: 2.53%
  EC50: > 10000 nM
5-HT2C receptor
  Emax: -30.5%
  EC50: > 10000 nM

## CN(C)CCc1n[nH]c2cccc(O)c12 [Example P-56, 3-(2-(dimethylamino)ethyl)-1H-indazol-4-ol]
5-HT2A receptor
  Emax: 50.5%
  EC50: 794 nM
5-HT2B receptor
  Emax: -0.39%
  EC50: > 10000 nM
5-HT2C receptor
  Emax: 63.6%
  EC50: 1260 nM

## COc1ccc2[nH]cc(CCN(C)C(C)C)c2n1 [Example P-14, N-(2-(5-methoxy-1H-pyrrolo[3,2-b]pyridin-3-yl)ethyl)-N-methylpropan-2-amine]
5-HT2A receptor
  Emax: 78.9%
  EC50: 21 nM
5-HT2B receptor
  Emax: 1.06%
  EC50: > 10000 nM
5-HT2C receptor
  Emax: 98.3%
  EC50: 139 nM

## CN(C)CCc1c[nH]c2nccc(F)c12 [Example P-32, N,N-dimethyl-2-(4-fluoro-1H-pyrrolo[2,3-b]pyridin-3-yl)ethan-1-amine]
5-HT2A receptor
  Emax: 57.8%
  EC50: 414 nM
5-HT2B receptor
  Emax: 0.14%
  EC50: > 10000 nM
5-HT2C receptor
  Emax: 0.61%
  EC50: > 10000 nM
